Tests used:
Format in all cases: cell-based
[1] = target: T1, human TLR2 (Homo sapiens, UniProt O60603); experiment: NF-κB-driven SEAP reporter assay in TLR-transfected HEK293 cells
T1 construct: host or cells: HEK293
Procedure: (§1) PeptideX2 (200 μg/mL) was tested for its effects on human TLR-driven NF-κB activation in HEK293 cell lines transfected with human TLR2, 3, 4, 5, 7, 8 or 9 (InvivoGen, San Diego, Calif.). HEK293 cells (50,000 to 75,000 cells/well) expressing the indicated TLR were plated in wells of a 96-well plate (200 μl total volume) containing either with no additions, PeptideX2 (in 20 μl buffer), or buffer only (20 μl) as a vehicle control. All cells contained a reporter construct having coding sequence for Secreted Embryonic Alkaline Phosphatase (SEAP) under the control of a promoter inducible by the transcription of NF-κB, and were incubated in media containing a detectable SEAP expression indicator (InvivoGen, San Diego, Calif.). After 16-20 hours incubation at 37° C., the optical density of culture supernatants was read at 650 nm on a Molecular Devices SpectraMax™ 340PC absorbance detector.
(§2) The relative potency of PeptideX2 induction of human TLR-mediated NF-κB activation was compared to the effects of known PAMP ligands that have activity as agonists for each of the human TLRs TLR2, TLR3, TLR4, TLR5, TLR7, TLR8 and TLR9, using the NF-κB-driven SEAP reporter assay (InvivoGen, San Diego, Calif.). The known TLR agonists were as follows: for TLR2, heat killed Listeria monocytogenes (HKLM) at 10^8 cells/ml; for TLR3, poly(I:C) at 1 ug/ml; for TLR4, E. coli K12 LPS at 100 ng/ml; for TLR5, S. typhimurium flagellin at 100 ng/ml; for TLR7, CL097 at 1 ug/ml; for TLR8, CL075 at 1 ug/ml; for TLR9, CpG ODN 2006 at 100 ng/ml.

[2] = target: T2, human TLR4 (Homo sapiens, UniProt O00206); experiment: as above; settings: PeptideX2 200 μg/mL, 16-20 hours
T2 construct: host or cells: HEK293
T2 sequence (O00206 24-839): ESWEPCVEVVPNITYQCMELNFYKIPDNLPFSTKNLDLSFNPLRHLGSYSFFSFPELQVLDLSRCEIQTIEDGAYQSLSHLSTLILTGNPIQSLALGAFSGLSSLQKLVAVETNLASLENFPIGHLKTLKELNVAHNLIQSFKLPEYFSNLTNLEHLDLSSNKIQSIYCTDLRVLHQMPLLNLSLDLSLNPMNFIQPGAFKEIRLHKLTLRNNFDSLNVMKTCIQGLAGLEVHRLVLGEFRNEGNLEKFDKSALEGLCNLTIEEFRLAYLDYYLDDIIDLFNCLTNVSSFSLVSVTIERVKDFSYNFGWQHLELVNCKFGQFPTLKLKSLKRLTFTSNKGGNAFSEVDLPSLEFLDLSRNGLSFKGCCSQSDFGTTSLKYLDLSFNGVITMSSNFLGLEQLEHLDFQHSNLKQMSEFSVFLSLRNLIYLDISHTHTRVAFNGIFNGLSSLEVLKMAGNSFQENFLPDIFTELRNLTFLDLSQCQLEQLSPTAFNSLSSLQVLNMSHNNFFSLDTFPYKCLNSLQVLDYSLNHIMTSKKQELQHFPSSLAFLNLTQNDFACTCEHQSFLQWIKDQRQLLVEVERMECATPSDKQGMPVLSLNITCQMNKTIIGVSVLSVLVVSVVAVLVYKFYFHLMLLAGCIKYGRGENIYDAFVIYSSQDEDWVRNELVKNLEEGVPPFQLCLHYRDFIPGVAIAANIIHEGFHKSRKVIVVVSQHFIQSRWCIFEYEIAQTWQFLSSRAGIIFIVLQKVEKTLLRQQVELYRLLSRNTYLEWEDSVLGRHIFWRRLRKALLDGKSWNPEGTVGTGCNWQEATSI
T2 sequence (Q9Y6Y9 17-160 partner limits assumed): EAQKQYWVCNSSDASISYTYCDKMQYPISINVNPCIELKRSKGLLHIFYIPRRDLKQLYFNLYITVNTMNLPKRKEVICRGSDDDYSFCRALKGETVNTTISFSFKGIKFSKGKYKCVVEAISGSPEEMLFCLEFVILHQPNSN
Procedure: as §1, §2

[3] = test system: Staphylococcus aureus; experiment: S. aureus growth (CFU) with human peripheral blood white cells
Procedure: (§3) Staphylococcus aureus bacteria were incubated with human peripheral blood white cells (WBC) in the absence or presence of PeptideX2 (0, 10, and 100 μg/ml), and the effects on S. aureus growth were assessed by serial dilutions, microbiological plating and determination by counting colony forming units (CFU) in culture samples withdrawn after incubation times of 0, 1.5 and 3 hours. The WBC-to-Staph ratio was 100:1, using WBC at 4×10^6/ml and Staph 4×10^4 CFU/ml.

[4] = test system: E. coli; experiment: E. coli growth (CFU) with human peripheral blood leukocytes; settings: E. coli with WBCs with PeptideX2, 10 hours
Procedure: Human peripheral blood leukocytes (WBCs) were obtained from healthy donors with informed consent. Three test groups were inoculated with E. coli and incubated for 10 hours. The three groups were E. coli with serum alone, E. coli with WBCs, and E. coli with WBCs with PeptideX2. Samples were taken at 0, 2, 4, 6 and 10 hours and plated for colony forming units (CFUs). […] In a separate but similar experiment, nine test groups (E. coli with serum alone, E. coli with WBCs, and E. coli with WBCs with PeptideX2 at each of seven indicated concentrations, see FIG. 12) were incubated over a time course of three hours, with quantification of bacterial CFU performed at times 0, 1.5 and 3 hours (FIG. 12).

[5] = test system: peripheral blood cells; experiment: Cytokine production by human peripheral blood cells (MSD panel)
Procedure: In order to examine the biological activity of IgX, cytokine production from human peripheral whole blood samples incubated with IgX was measured. Peripheral whole blood samples from three different donors (#66, 67, and 85) were obtained with appropriate informed consent and incubated with concentrations of IgX ranging from 0 to 200 ug/ml.
Protein A purified IgX was prepared from placental sample BC, brought to 0.05 M phosphate, 0.15 M NaCl buffer, pH 7.4, treated with an endotoxin affinity column (ActiClean Etox™ from Sterogene, Carlsbad, Calif.) according to the supplier's instructions, and then sent to IBT Bioservices (Gaithersburg, Md.) for human peripheral blood testing. […] All peripheral blood cells were suspended in RPMI-1640 media. Various concentrations of IgX were incubated with peripheral blood cells from donor D66 for 18 hours, and then the samples were stimulated with 1 ug/ml of PHA, 50 ng/ml of LPS, or 10 ng/ml of IFNγ (200 U/ml) for four hours. Samples of culture supernatant fluids were tested in duplicate for the presence of IL-2, IL-4, IL-6, IL-10, IL-12, and TNFα using a Meso Scale Discovery (MSD, Gaithersburg, Md.) panel.
PeptideX1 and PeptideX2 were incubated with peripheral blood cells from donor D67 as described above and tested in duplicate for IL-6 activity. […]

[6] = test system: murine TLR3, 5, 7, 8 or 9; experiment: NF-κB-driven SEAP reporter assay in TLR-transfected HEK293 cells; settings: PeptideX2 200 μg/mL
Procedure: as §1
(§4) PeptideX2 (200 μg/mL) was also tested for its effects on murine TLR-driven NE-κB activation in HEK293 cell lines transfected with murine TLR2, 3, 4, 5, 7, 8 or 9 (InvivoGen, San Diego, Calif.) essentially as described above.

[7] = target: T3, murine TLR2 (Mus musculus, UniProt Q9QUN7); experiment: as above; settings: PeptideX2 200 μg/mL
T3 construct: host or cells: HEK293
T3 sequence (Q9QUN7 25-784): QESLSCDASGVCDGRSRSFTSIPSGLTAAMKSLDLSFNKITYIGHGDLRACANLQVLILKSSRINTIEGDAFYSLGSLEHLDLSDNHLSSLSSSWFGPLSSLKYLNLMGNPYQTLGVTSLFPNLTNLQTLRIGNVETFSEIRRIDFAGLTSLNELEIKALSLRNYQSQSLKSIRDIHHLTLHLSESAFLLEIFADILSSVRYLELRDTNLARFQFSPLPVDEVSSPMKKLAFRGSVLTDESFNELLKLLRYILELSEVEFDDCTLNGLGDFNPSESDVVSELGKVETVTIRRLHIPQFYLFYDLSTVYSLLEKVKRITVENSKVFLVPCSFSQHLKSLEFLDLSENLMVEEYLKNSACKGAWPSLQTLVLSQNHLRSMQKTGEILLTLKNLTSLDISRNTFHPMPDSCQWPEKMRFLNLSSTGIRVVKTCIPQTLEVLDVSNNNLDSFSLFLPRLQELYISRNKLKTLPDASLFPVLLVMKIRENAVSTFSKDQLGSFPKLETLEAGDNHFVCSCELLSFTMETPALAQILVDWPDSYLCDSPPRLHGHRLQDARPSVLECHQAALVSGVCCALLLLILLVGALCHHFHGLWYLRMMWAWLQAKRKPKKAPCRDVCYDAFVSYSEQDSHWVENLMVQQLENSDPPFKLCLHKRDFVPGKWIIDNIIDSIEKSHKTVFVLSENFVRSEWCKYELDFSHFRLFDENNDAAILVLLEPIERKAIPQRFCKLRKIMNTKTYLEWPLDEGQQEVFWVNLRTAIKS
Procedure: as §1, §4

[8] = target: T4, murine TLR4 (Mus musculus, UniProt Q9QUK6); experiment: as above; settings: PeptideX2 200 μg/mL
T4 construct: host or cells: HEK293
T4 sequence (Q9QUK6 26-835): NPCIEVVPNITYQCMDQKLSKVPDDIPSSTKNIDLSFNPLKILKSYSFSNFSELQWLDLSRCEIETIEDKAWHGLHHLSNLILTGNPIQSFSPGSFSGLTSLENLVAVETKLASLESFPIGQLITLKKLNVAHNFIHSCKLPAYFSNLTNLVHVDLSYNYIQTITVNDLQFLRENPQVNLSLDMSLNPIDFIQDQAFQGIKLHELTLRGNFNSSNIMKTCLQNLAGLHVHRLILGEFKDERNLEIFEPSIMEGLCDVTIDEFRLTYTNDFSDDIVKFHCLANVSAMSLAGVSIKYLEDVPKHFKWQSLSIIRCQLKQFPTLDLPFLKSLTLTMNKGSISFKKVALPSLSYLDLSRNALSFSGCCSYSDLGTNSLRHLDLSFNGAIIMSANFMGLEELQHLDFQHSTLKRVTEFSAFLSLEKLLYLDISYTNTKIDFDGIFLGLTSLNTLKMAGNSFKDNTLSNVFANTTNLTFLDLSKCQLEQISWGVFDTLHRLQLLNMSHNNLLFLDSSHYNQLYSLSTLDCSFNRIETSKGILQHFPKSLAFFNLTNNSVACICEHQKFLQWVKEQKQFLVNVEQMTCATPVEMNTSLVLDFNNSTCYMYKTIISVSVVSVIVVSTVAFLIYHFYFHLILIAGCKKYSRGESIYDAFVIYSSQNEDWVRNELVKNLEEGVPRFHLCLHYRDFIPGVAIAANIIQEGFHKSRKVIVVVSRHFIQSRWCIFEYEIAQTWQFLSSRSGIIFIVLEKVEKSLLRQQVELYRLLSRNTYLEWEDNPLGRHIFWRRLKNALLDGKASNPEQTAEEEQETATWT
T4 sequence (Q9JHF9 19-160 partner): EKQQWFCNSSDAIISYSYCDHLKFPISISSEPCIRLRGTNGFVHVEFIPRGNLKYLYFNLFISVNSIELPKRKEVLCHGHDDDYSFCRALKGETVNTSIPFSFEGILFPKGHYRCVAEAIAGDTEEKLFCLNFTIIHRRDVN
Procedure: as §1, §4

[9] = test system: human peripheral blood white cells (WBC); experiment: TNFα production by WBC during short-term incubation with S. aureus (ELISA); settings: for TNFα concentration: 3-hour culture
Procedure: as §3, with “CFU/ml. Supernatant fluids from the same experimental cultures were also tested for TNFα production by WBC during the short-term incubations with S. aureus. […] In this three-hour timeframe, however, the presence of PeptideX2 at these concentrations had no effect on WBC bacteriocidal activity against S. aureus.” for “CFU/ml.”

T1 sequence (O60603 21-784): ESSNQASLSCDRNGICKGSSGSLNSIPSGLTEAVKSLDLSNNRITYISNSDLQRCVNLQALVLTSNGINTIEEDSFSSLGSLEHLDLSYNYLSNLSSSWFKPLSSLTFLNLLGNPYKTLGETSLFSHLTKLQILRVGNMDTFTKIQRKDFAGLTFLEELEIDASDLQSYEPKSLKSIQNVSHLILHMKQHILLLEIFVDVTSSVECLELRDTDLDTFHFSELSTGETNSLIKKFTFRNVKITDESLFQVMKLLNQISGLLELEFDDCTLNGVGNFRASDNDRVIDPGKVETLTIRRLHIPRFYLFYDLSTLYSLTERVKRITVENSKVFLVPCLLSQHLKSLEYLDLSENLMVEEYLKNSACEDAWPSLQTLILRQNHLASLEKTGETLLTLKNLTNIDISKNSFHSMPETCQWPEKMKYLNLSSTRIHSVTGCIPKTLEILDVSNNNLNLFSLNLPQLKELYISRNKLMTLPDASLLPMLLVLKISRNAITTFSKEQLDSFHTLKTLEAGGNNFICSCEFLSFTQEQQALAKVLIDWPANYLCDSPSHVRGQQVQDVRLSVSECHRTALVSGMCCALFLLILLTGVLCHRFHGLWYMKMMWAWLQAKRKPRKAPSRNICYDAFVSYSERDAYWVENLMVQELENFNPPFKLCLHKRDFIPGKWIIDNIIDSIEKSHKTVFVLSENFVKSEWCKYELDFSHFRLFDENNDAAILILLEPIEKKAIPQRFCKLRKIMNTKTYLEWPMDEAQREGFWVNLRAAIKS

## KSIAYLQMNSLK (Peptide fragment) [PeptideX2, dodecapeptide derived from the heavy chain hypervariable region of IgX, residues 97-108 of AAH90938.1]
[1]; PeptideX2 200 μg/mL vs HKLM at 10^8 cells/ml
  TLR2-mediated response as level of the response to HKLM: 14%
[1]; PeptideX2 200 μg/mL, 16-20 hours
  NF-κB activation via TLR2: activation of NF-κB via TLR2 and TLR4
[2]
  NF-κB activation via TLR4: activation of NF-κB via TLR2 and TLR4
[3]; PeptideX2 10 and 100 ug/ml, three-hour timeframe
  effect on WBC bacteriocidal activity against S. aureus: no effect
[3]; WBC present, up to three hours, presence or absence of PeptideX2 (0, 10, 100 μg/ml)
  S. aureus growth: no S. aureus growth was detected
[4]
  E. coli CFUs: rapid rise in CFUs
[5]; cells from donor #67, compared to peptideX1
  IL-6 production: significantly greater IL-6 production compared to peptideX1
[5]; cells from donor #85, PeptideX2 0, 10, 100 or 200 ug/ml
  IL-6 production: enhanced production
[6]
  NF-κB-driven SEAP expression through the other murine TLRs tested: not through the other TLRs tested
[7]
  NF-κB-driven SEAP expression through murine TLR2: induction
[8]
  NF-κB-driven SEAP expression through murine TLR4: induction
  potency via murine TLR4 relative to murine TLR2: greater potency in activating via murine TLR4 relative to murine TLR2
[9]; 100 ug/ml PeptideX2, 3-hour timepoint
  reduction in TNFα production: 65%
[9]; WBC plus PeptideX2 at 10 ug/ml
  TNFα concentration: 160 pg/mL
[9]; WBC plus PeptideX2 at 100 ug/ml
  TNFα concentration: 76 pg/mL
[9]; serum plus PeptideX2 at 100 ug/ml (no WBC)
  TNFα concentration: 0.05 pg/mL
[9]; PeptideX2 at 10 ug/ml, 3-hour timepoint
  reduction in TNFα production: 27%
